Common to all, as to assay type: in vivo
The test system of assay [1] is Random Hooded rats. In words: Rat Model of Acute Inflammatory Pain (intraplantar FCA, weight bearing). Conditions: oral; for reversal of FCA (i.pl)-induced difference in weight bearing compared to vehicle response: 24 hours after FCA injection; for ED50: FCA (i.pl) weight bearing, read-out: ED50 obtained from dose response curves. The protocol: Rat Model of Acute Inflammatory Pain
A useful animal model for acute inflammatory pain is the Freund's Complete Adjuvant (FCA)-induced inflammation model. A similar model using carrageenan rather than FCA is described by Clayton et al. in Br. J. Pharmacol. 1997; 120, 219P. Adult male Random Hooded rats (180-220 g) from Charles River, UK received an intraplantar (i.pl) injection of 100 μl of FCA into the plantar surface of the left hind paw. The ability to bear weight on each hindlimb (weight bearing g) was measured prior to and 24 hours after the FCA injection using a Dual Channel Weight Averager (Linton Instruments). After the post-FCA reading, rats were typically dosed orally with compound after which weight bearing measurements were recorded.

The test system of assay [2] is Random Hooded rats. In words: Rat Model of Neuropathic Pain (sciatic nerve ligatures, Von Frey mechanical allodynia). The note with it: oral, twice daily for 8 days, 26-33 days post surgery. An excerpt: Rat Model of Neuropathic Pain
By placing loosely constrictive ligatures around the common sciatic nerve, a peripheral mononeuropathy can be produced, which thereby provides a rat model of neuropathic pain, Bennet et al., Pain, Vol. 33, pp 87-107 (1988). Adult male Random Hooded rats (180-200 g) from Charles River, UK were anaesthetised with isoflurane (3%). The sciatic nerve in the left leg was exposed at mid thigh level and 4 loose ligatures of Chromic 4.0 gut tied around the nerve as described by Bennet et al., Pain, Vol. 33, pp 87-107 (1988). The wound was closed and secured with staples. Sham rats underwent the same procedure but loose ligatures were not applied. The presence of mechanical (tactile) allodynia was assessed using manual application of Von Frey hair monofilaments. Monofilaments were applied in ascending order to the plantar region of the hind paw (range: 1.4 g-26 g). Each hair was applied for approx. 3-5 seconds until a paw withdrawal response was observed. After confirmation with reapplication of lower and/or higher hairs, the lowest hair to give a paw withdrawal was recorded as the threshold response (g). When stable allodynia was established rats were dosed orally 26-33 days post surgery with compound twice daily for 8 days with allodynia measurements recorded at least three times during the dosing period.

For assay [3], the system named is Random Hooded rats. In words: Rat Model of Joint Pain (intra-articular FCA, weight bearing). Conditions: oral; for ED50: FCA (i.art) weight bearing, read-out: ED50 obtained from Area Under the Curve (AUC) calculations; for reversal of FCA (i.art)-induced difference in weight bearing compared to vehicle response: twice daily for 5 days, normally 13-17 days post surgery. How it is done: By measuring hypersensitivity post intra-articular injection of FCA into the knee, the effectiveness of a potential analgesic in reversing FCA-induced hypersensitivity can be assessed in a joint pain model of chronic inflammatory pain. Adult male Random Hooded rats (150-180 g) from Charles River, UK were briefly anaesthetised with isoflurane (3%). Rats were then injected with 150 μl of Freund's complete adjuvant (FCA) into the left knee joint (intra-articularly, i.art). The ability to bear weight on each hindlimb (weight bearing, g) was measured prior to and following surgery using a Dual Channel Weight Averager (Linton Instruments). When a stable difference in weight bearing was established between the injected and contralateral paws, rats were typically dosed orally (normally 13-17 days post surgery) with compound twice daily for 5 days with weight bearing measurements recorded daily.

The term ED50 denotes the dose that gives a 50% effect, or the effect in half of the subjects.

Molecules are shown by their SMILES. A value given as a limit tells only on which side of the number the result lay.

Consider `CN1C(=O)CC[C@H]1C(=O)NCc1cccc(C(F)(F)F)c1Cl` [Example E51, N-{[2-chloro-3-(trifluoromethyl)phenyl]methyl}-1-methyl-5-oxoprolinamide], for which, in the assay with Random Hooded rats [1], the “reversal of FCA (i.pl)-induced difference in weight bearing compared to vehicle response” value is on record as “significantly reversed” and the ED50 is less than 20 mg/kg. For the same compound, in the assay on Random Hooded rats [2], the “reversal of CCl-induced mechanical allodynia compared to vehicle response” value was “significantly reversed”. Further, in the assay with Random Hooded rats [3], the ED50 is less than 20 mg/kg and the “reversal of FCA (i.art)-induced difference in weight bearing compared to vehicle response” value is recorded as “significantly reversed”.
For `CN1C(=O)CC[C@H]1C(=O)NCc1ccc(Cl)cc1Cl` [Example E10, N-[(2,4-dichlorophenyl)methyl]-1-methyl-5-oxo-prolinamide], in the assay on Random Hooded rats [1], the “reversal of FCA (i.pl)-induced difference in weight bearing compared to vehicle response” value is reported as “significantly reversed” and the ED50 was less than 20 mg/kg. In addition, in the assay with Random Hooded rats [2], the “reversal of CCl-induced mechanical allodynia compared to vehicle response” value is on record as “significantly reversed”. In the assay on Random Hooded rats [3], the ED50 is less than 20 mg/kg and the “reversal of FCA (i.art)-induced difference in weight bearing compared to vehicle response” value is on record as “significantly reversed”.

Values taken from patent US7718693B2, “Receptor antagonists and their methods of use” (Glaxo Group Limited, priority 2006, dated 2010).
